# Columns and labels:
# [1] = biological target: T1, recombinant human TTLL4 catalytic domain (Homo sapiens, UniProt Q14679); experiment: TTLL4 activity immunoassay (anti-glu immuno-detection of glutamylated Nap2 substrate); assay type: biochemical; details: 0.2 millimolar ATP, 1 millimolar glutamic acid, 30° C., 10 minutes, read-out: in vitro TTLL4 IC50
# T1 construct: TTLL4 catalytic domain (composed of residues 561-1199); made in house; host or cells: E. coli
# T1 sequence (Q14679 561-1199): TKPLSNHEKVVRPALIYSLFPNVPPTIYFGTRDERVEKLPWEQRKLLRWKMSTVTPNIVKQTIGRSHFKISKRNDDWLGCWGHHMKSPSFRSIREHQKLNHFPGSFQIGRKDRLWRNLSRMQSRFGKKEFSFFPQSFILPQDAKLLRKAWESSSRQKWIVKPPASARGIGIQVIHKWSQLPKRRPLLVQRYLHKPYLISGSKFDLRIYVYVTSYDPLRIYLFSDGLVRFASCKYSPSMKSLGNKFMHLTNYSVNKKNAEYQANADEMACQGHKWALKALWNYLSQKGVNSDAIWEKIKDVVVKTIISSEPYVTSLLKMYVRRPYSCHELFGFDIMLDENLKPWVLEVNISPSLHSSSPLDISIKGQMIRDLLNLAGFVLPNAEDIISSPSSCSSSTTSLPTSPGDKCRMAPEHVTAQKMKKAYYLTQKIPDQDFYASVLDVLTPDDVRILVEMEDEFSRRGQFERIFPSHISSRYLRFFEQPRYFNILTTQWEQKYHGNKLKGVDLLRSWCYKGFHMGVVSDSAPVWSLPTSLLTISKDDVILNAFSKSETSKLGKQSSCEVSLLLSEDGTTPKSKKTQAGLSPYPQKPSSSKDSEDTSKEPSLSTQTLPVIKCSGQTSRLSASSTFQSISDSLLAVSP
# Method: To measure TTLL4 activity and inhibition by lead compounds, we used an immunoassay. The antibody against mono-glutamate-glutamylation was prepared by immunizing white rabbits with the following peptide: MY {Glu (Glu)} DDEEESEAQGPKC (based on studies published here: doi: 10.1016/S0091-679X (10) 95003-6). The serum was purified by cross-adsorption against a non-glutamylated peptide: MYEDDEEESEAQGPKC. The purified antibody was stored in PBS with 0.02% Preclin 300. The final ELISA titer from the purified antibodies against the glutamylated peptide was >1:512,000. These antibodies are noted as “anti-glu”.
# To measure activity, recombinant human TTLL4 catalytic domain (composed of residues 561-1199) was produced in E. coli and purified via nickel-affinity and size exclusion column (Superdex 200) chromatography. Similarly, the glutamate-glutamylation substrate Nap2 (gene from Xenopus tropicalis) was produced in E. coli and purified via nickel-affinity size exclusion column (Superdex 200) chromatography. […] Intensity measurements were quantified with the Microar-ray Profile plugin for FIJI/ImageJ and analyzed with a 4-parameter model in Graphpad Prism v9.
# [2] = test system: OCI-AML3 human cell line (degron-inducible NPM1c); experiment: NPM1c degradation in OCI-AML3 NPM1c-degron cells, glutamate-glutamylation by Western blot; assay type: cell-based
# Method: FIGS. 3A and 3B illustrate that TTLL4 catalyzes NPM1 and NPM1c glutamate-glutamylation. FIG. 3A is a Western blot of an AML3-NPM1c-degron cell line with a doxycycline (DOX)-inducible TTLL4 shRNA knockdown. Scrambled shRNA or TTLL4 shRNA cells were treated +/−DOX, resulting in loss of glutamate-glutamylation on both NPM1c-degron and NPM1 wild type proteins (top gel, +DOX). FIG. 3B is a summary of a qRT-PCR analysis of shTTLL4 cells treated with DOX.
# A doxycycline-inducible TTLL4 shRNA was introduced to this cell line. TTLL4kd eliminated NPM1c glutamate-glutamylation and reduced cellular proliferation (FIGS. 3A, 3B, and 4A). In addition, CRISPR-Cas9 mediated knockout of TTLL4 in OCI-AML3 cells reduced colony formation in methylcellulose (FIG. 4B, methylcellulose colony forming assays are used to detect cell proliferation and hematopoietic/progenitor activity) and increased apoptosis (FIG. 4C).
Compound,IC50 [1],glutamate-glutamylation of the NPM1 wt protein after degradation of NPM1c [2]
O=C(Cn1c(=O)c(F)cn(C2CCCO2)c1=O)N1N=C(c2ccc(Cl)cc2)CC1c1ccco1 (stereo not drawn) [Candidate 2],40 µM,
CC[C@H](C(=O)N1CCCC[C@H]1C(=O)O[C@H](CCc1ccc(OC)c(OC)c1)c1ccccc1OCC(=O)NCCCCCCOc1cccc2c1C(=O)N(C1CCC(=O)NC1=O)C2=O)c1cc(OC)c(OC)c(OC)c1 (stereo partly drawn) [dTAG-13],,loss of glutamate-glutamylation of the NPM1 wt protein
COc1ccc(-c2cc3c(SCC(=O)Nc4c(C)cc(C)cc4C)nccn3n2)cc1 [Candidate 1],9 µM,
